Where no end group is shown, it is not given here.
Experiments:
[1] = test system: Hela cells; test: SPLICS (ER-mitochondria split-GFP) proximity assay; format: cell-based; conditions: Hela cells transfected with SPLICS vector, 10 mM EtOH, peptide 20 μM, 1 hour, vs control (DW)
Text: To this end, MAM regulatory activity was verified using the SPLICS (ER-mitochondria split-GFP) system, which allows observation of the proximity between intracellular organelles through fluorescence emission. The SPLICS system is a system that can efficiently image the proximity of intracellular organelles based on the principle that split-GFP fluorescence is emitted when two organelles are within approximately 10 to 40 nm of each other. As the two organelles approach, complementation of GFP occurs, resulting in fluorescence at the junction. It is to be noted that increased contact between ER and mitochondria may lead to cellular stress and dysfunction.
First, to observe the change in the distance between the ER and mitochondria due to treatment with the fusion peptides, Hela cells were transfected with the SPLICS vector. Afterwards, the HeLa cells were treated with the fusion peptides and the area (%) of GFP fluorescence relative to the total area per cell was measured. […] That is to say, it was observed from the decrease in green fluorescence in the groups treated with the fusion peptides of the present disclosure that the two organelles were moving apart from each other.

[2] = test system: ApoE knockout mice; test: Atherosclerosis animal model (high-cholesterol diet, ApoE knockout mice); format: in vivo; conditions: 50 mg/kg intraperitoneally every 2 days for 8 weeks
Method: Animal experiment was performed in accordance with the guidelines approved by the Institutional Animal Care and Use Committee of Yonsei University (IACUC-A-202404-1847-02). 6-week-old male ApoE knockout B6.KOR/StmSlc-Apoeshl mice were housed in a specific pathogen-free system with a 12-hour light-dark cycle with free access to food and water, and randomly divided into three groups (control, positive control, and test groups). Then, the sample was injected intraperitoneally to the control group (vehicle), the positive control group (CTS (cryptotanshinone), 20 mg/kg), and the test group (peptide, 50 mg/kg) once every two days for 8 weeks while feeding the mice with a high-cholesterol diet until the end of the experiment (for 8 weeks).
After sacrificing the mice, PBS perfusion was performed through the left ventricle, and the heart, artery, and blood were obtained. The artery was cut along the bifurcation of the iliac artery, spread out, fixed with pins, and fixed in 10% formaldehyde for 16 hours. After staining with Oil-Red-O for 16 hours, the samples were washed with PBS and images were obtained using a microscope (NS-6T, China).
The fusion peptide 4 (50 mg/kg) was injected intraperitoneally every 2 days for 8 weeks into an animal model of atherosclerosis (high-cholesterol diet, ApoE knockout mice).

[3] = test system: HUVEC cells; test: MTT assay (cell proliferation); format: cell-based, human; conditions: 0-300 μM, up to 72 hours
Method: Human umbilical vein endothelial cells (HUVECs) were cultured in EBM-2 medium supplemented with FBS (2%, v/v) and antibiotics. After seeding the cells in a 96-well plate at 3,000 cells/well and culturing the same, they were treated with the prepared fusion peptides on the next day at concentrations of 0, 100, 200, and 300 μM. After 0, 24, 48, and 72 hours, MTT solution (2 mg/mL) was treated at a concentration of 0.4 mg/mL. After culturing for 3 hours, the medium was removed and the cells were treated with DMSO. Then, fluorescence was measured at 540 nm.
Afterwards, 3-[4,5-dimethylthiazol-2-yl]-2,5-diphenyltetrazolium bromide (MTT) assay, which allows observation of cell proliferation by fluorescence, was performed to confirm the optimal concentration of the fusion peptide 4 in the HUVEC cells.

| Substance | GFP fluorescence signal (area of GFP fluorescence relative to the total area per cell), SPLICS [1] | body weight [2] | cell proliferation (MTT) [3] |
| --- | --- | --- | --- |
| YARVRRRGPRR-DTETKME (YARVRRRGPRRDTETKME) [fusion peptide 3] | significant decrease in fluorescence signals |  |  |
| YARVRRRGPRR-FSTAADGQTQ (YARVRRRGPRRFSTAADGQTQ) [fusion peptide 1] | significant decrease in fluorescence signals |  |  |
| YARVRRRGPRR-GGG-FSTAADGQTQ (YARVRRRGPRRGGGFSTAADGQTQ) [fusion peptide 2, CPP Hph-1 linked to Peptide 2 (GGG-…), GRP75 motif] | significant decrease in fluorescence signals |  |  |
| YARVRRRGPRRRSIYYLGIGPT [fusion peptide 4, YARVRRRGPRR-RSIYYLGIGPT] |  | did not affect the body weight | no inhibition of cell proliferation was observed even at concentrations of 100-200 μM |

Source: patent US20250171496A1, “FUSION PEPTIDE FOR REGULATING ACTIVATION OF MAM AND USE THEREOF” (UIF (University Industry Foundation), Yonsei University, priority 2023, published 2025)
